# Test system: Mycobacterium tuberculosis
# Test: Antimycobacterial activity against Mycobacterium tuberculosis H37Rv
# Format: functional
# Conditions: not given
row,Compound,MIC [µM]
1,CCCCCCc1ccc(NC(=O)C2=CCN(C)[C@@H]([C@H](O[C@@H]3O[C@H](CN)[C@@H](O)[C@H]3O)[C@H]3O[C@@H](n4ccc(=O)[nH]c4=O)[C@H](O)[C@@H]3O)C(=O)N2C)cc1,1.09
2,CCCCCCCCCCCCCCNC(=O)C1=CCN(C)[C@@H]([C@H](O[C@@H]2O[C@H](CN)[C@@H](O)[C@H]2O)[C@H]2O[C@@H](n3ccc(=O)[nH]c3=O)[C@H](O)[C@@H]2O)C(=O)N1C,0.98
3,CCCCCCCCCCCCCCCCCCNC(=O)C1=CCN(C)[C@@H]([C@H](O[C@@H]2O[C@H](CN)[C@@H](O)[C@H]2O)[C@H]2O[C@@H](n3ccc(=O)[nH]c3=O)[C@H](O)[C@@H]2O)C(=O)N1C,0.98
4,CCCCCCCCCCCCNC(=O)C1=CCN(C)[C@@H]([C@H](O[C@@H]2O[C@H](CN)[C@@H](O)[C@H]2O)[C@H]2O[C@@H](n3ccc(=O)[nH]c3=O)[C@H](O)[C@@H]2O)C(=O)N1C,0.98
5,CN1C(=O)[C@H]([C@H](O[C@@H]2O[C@H](CN)[C@@H](O)[C@H]2O)[C@H]2O[C@@H](n3ccc(=O)[nH]c3=O)[C@H](O)[C@@H]2O)N(C)CC=C1C(=O)NC1CCCCCCCCCCC1,2.16
6,CCCCCCCCCCCCCCCCCCCNC(=O)C1=CCN(C)[C@@H]([C@H](O[C@@H]2O[C@H](CN)[C@@H](O)[C@H]2O)[C@H]2O[C@@H](n3ccc(=O)[nH]c3=O)[C@H](O)[C@@H]2O)C(=O)N1C,0.98
7,CCCCOc1ccc(NC(=O)C2=CCN(C)[C@@H]([C@H](O[C@@H]3O[C@H](CN)[C@@H](O)[C@H]3O)[C@H]3O[C@@H](n4ccc(=O)[nH]c4=O)[C@H](O)[C@@H]3O)C(=O)N2C)cc1,1.04
8,CCCCCCCCCCCNC(=O)C1=CCN(C)[C@@H]([C@H](O[C@@H]2O[C@H](CN)[C@@H](O)[C@H]2O)[C@H]2O[C@@H](n3ccc(=O)[nH]c3=O)[C@H](O)[C@@H]2O)C(=O)N1C,0.98
9,CO[C@@H]1[C@@H](OC)[C@H](C)O[C@@H](OC(=O)C[C@@H](C)CC(=O)O[C@@H](CCCCCCCCCCC(C)C)CC(=O)O[C@H]2CN(C)[C@@H]([C@H](O[C@@H]3O[C@H](CN)[C@@H](O)[C@H]3O)[C@H]3O[C@@H](n4ccc(=O)[nH]c4=O)[C@H](O)[C@@H]3O)C(=O)N(C)[C@@H]2C(=O)O)[C@@H]1OC,2.73
10,CCCCCCCCCCCCCCCCCNC(=O)C1=CCN(C)[C@@H]([C@H](O[C@@H]2O[C@H](CN)[C@@H](O)[C@H]2O)[C@H]2O[C@@H](n3ccc(=O)[nH]c3=O)[C@H](O)[C@@H]2O)C(=O)N1C,0.98
11,CCCCCCCNC(=O)C1=CCN(C)[C@@H]([C@H](O[C@@H]2O[C@H](CN)[C@@H](O)[C@H]2O)[C@H]2O[C@@H](n3ccc(=O)[nH]c3=O)[C@H](O)[C@@H]2O)C(=O)N1C,0.98
12,CCCCCNC(=O)C1=CCN(C)[C@@H]([C@H](O[C@@H]2O[C@H](CN)[C@@H](O)[C@H]2O)[C@H]2O[C@@H](n3ccc(=O)[nH]c3=O)[C@H](O)[C@@H]2O)C(=O)N1C,0.98
13,CCCCCCCCCCCCCCCCCCCCNC(=O)C1=CCN(C)[C@@H]([C@H](O[C@@H]2O[C@H](CN)[C@@H](O)[C@H]2O)[C@H]2O[C@@H](n3ccc(=O)[nH]c3=O)[C@H](O)[C@@H]2O)C(=O)N1C,0.98
14,CCCCCCCCCCNC(=O)C1=CCN(C)[C@@H]([C@H](O[C@@H]2O[C@H](CN)[C@@H](O)[C@H]2O)[C@H]2O[C@@H](n3ccc(=O)[nH]c3=O)[C@H](O)[C@@H]2O)C(=O)N1C,0.98
15,CC/C=C\CCCCCCCCCCOC(=O)C1=CCN(C)[C@@H]([C@H](O[C@@H]2O[C@H](CN)[C@@H](O)[C@H]2O)[C@H]2O[C@@H](n3ccc(=O)[nH]c3=O)[C@H](O)[C@@H]2O)C(=O)N1C,16.6
16,CCCCCCCCCCCCCOC(=O)C1=CCN(C)[C@@H]([C@H](O[C@@H]2O[C@H](CN)[C@@H](O)[C@H]2O)[C@H]2O[C@@H](n3ccc(=O)[nH]c3=O)[C@H](O)[C@@H]2O)C(=O)N1C,8.45
17,CCCCc1ccc(N)cc1,2.27
18,Nc1ccc(C2CCCCC2)cc1,2.27

row,Compound,MIC [µM]
1,CCCCCCCCCNC(=O)C1=CCN(C)[C@@H]([C@H](O[C@@H]2O[C@H](CN)[C@@H](O)[C@H]2O)[C@H]2O[C@@H](n3ccc(=O)[nH]c3=O)[C@H](O)[C@@H]2O)C(=O)N1C,0.98
2,CCCCCCCCCCCCCNC(=O)C1=CCN(C)[C@@H]([C@H](O[C@@H]2O[C@H](CN)[C@@H](O)[C@H]2O)[C@H]2O[C@@H](n3ccc(=O)[nH]c3=O)[C@H](O)[C@@H]2O)C(=O)N1C,0.98
3,CCCCCCCCCCOC(=O)C1=CCN(C)[C@@H]([C@H](O[C@@H]2O[C@H](CN)[C@@H](O)[C@H]2O)[C@H]2O[C@@H](n3ccc(=O)[nH]c3=O)[C@H](O)[C@@H]2O)C(=O)N1C,8.45
4,CN1C(=O)[C@H]([C@H](O[C@@H]2O[C@H](CN)[C@@H](O)[C@H]2O)[C@H]2O[C@@H](n3ccc(=O)[nH]c3=O)[C@H](O)[C@@H]2O)N(C)CC=C1C(=O)Nc1ccc(C2CCCCC2)cc1,2.18
5,CCCCCCCCCCCCCCCNC(=O)C1=CCN(C)[C@@H]([C@H](O[C@@H]2O[C@H](CN)[C@@H](O)[C@H]2O)[C@H]2O[C@@H](n3ccc(=O)[nH]c3=O)[C@H](O)[C@@H]2O)C(=O)N1C,0.98
6,C=CCCCCCCCCCOC(=O)C1=CCN(C)[C@@H]([C@H](O[C@@H]2O[C@H](CN)[C@@H](O)[C@H]2O)[C@H]2O[C@@H](n3ccc(=O)[nH]c3=O)[C@H](O)[C@@H]2O)C(=O)N1C,17.6
7,CCCCCCCCNC(=O)C1=CCN(C)[C@@H]([C@H](O[C@@H]2O[C@H](CN)[C@@H](O)[C@H]2O)[C@H]2O[C@@H](n3ccc(=O)[nH]c3=O)[C@H](O)[C@@H]2O)C(=O)N1C,0.98
8,CCCCCCNC(=O)C1=CCN(C)[C@@H]([C@H](O[C@@H]2O[C@H](CN)[C@@H](O)[C@H]2O)[C@H]2O[C@@H](n3ccc(=O)[nH]c3=O)[C@H](O)[C@@H]2O)C(=O)N1C,0.98
9,CCc1ccc(NC(=O)C2=CCN(C)[C@@H]([C@H](O[C@@H]3O[C@H](CN)[C@@H](O)[C@H]3O)[C@H]3O[C@@H](n4ccc(=O)[nH]c4=O)[C@H](O)[C@@H]3O)C(=O)N2C)cc1,1.09
10,CCCCc1ccc(NC(=O)C2=CCN(C)[C@@H]([C@H](O[C@@H]3O[C@H](CN)[C@@H](O)[C@H]3O)[C@H]3O[C@@H](n4ccc(=O)[nH]c4=O)[C@H](O)[C@@H]3O)C(=O)N2C)cc1,1.09
11,CCCCCCCc1ccc(NC(=O)C2=CCN(C)[C@@H]([C@H](O[C@@H]3O[C@H](CN)[C@@H](O)[C@H]3O)[C@H]3O[C@@H](n4ccc(=O)[nH]c4=O)[C@H](O)[C@@H]3O)C(=O)N2C)cc1,1.09
12,CCCCCCCOc1ccc(NC(=O)C2=CCN(C)[C@@H]([C@H](O[C@@H]3O[C@H](CN)[C@@H](O)[C@H]3O)[C@H]3O[C@@H](n4ccc(=O)[nH]c4=O)[C@H](O)[C@@H]3O)C(=O)N2C)cc1,0.98
13,CCCCCCCCCCCCCCCCNC(=O)C1=CCN(C)[C@@H]([C@H](O[C@@H]2O[C@H](CN)[C@@H](O)[C@H]2O)[C@H]2O[C@@H](n3ccc(=O)[nH]c3=O)[C@H](O)[C@@H]2O)C(=O)N1C,0.98
14,CCCCCCCCCCCCCCCCCCCCCNC(=O)C1=CCN(C)[C@@H]([C@H](O[C@@H]2O[C@H](CN)[C@@H](O)[C@H]2O)[C@H]2O[C@@H](n3ccc(=O)[nH]c3=O)[C@H](O)[C@@H]2O)C(=O)N1C,0.98
15,CCCCCCCCCCCCCCCCCCOC(=O)C1=CCN(C)[C@@H]([C@H](O[C@@H]2O[C@H](CN)[C@@H](O)[C@H]2O)[C@H]2O[C@@H](n3ccc(=O)[nH]c3=O)[C@H](O)[C@@H]2O)C(=O)N1C,8.45
16,CCCCOc1ccc(N)cc1,2.27
17,CCCCCCCCCCCCc1ccc(NC(=O)C2=CCN(C)[C@@H]([C@H](O[C@@H]3O[C@H](CN)[C@@H](O)[C@H]3O)[C@H]3O[C@@H](n4ccc(=O)[nH]c4=O)[C@H](O)[C@@H]3O)C(=O)N2C)cc1,1.09
18,CCCCCCCC/C=C\CCCCCCCCNC(=O)C1=CCN(C)[C@@H]([C@H](O[C@@H]2O[C@H](CN)[C@@H](O)[C@H]2O)[C@H]2O[C@@H](n3ccc(=O)[nH]c3=O)[C@H](O)[C@@H]2O)C(=O)N1C,3.88

# Test system: Mycobacterium tuberculosis
# Test: Antimycobacterial activity against Mycobacterium tuberculosis H37Rv ATCC 27294 after 14 days by resazurin reduction microplate assay
# Format: functional
# Conditions: H37Rv ATCC 27294, 336 h
Compound,MIC50 [µM],MIC [µM]
C[C@@H]([C@H](NC(=O)[C@H](Cc1ccccc1)NC(=O)N[C@@H](Cc1c[nH]c2ccccc12)C(=O)O)C(=O)NC[C@H]1C[C@@H](O)[C@H](n2ccc(=O)[nH]c2=O)O1)N(C)C(=O)CN,0.26,–
CC(C)C[C@H](NC(=O)N[C@@H](Cc1c[nH]c2ccccc12)C(=O)O)C(=O)N[C@H](C(=O)NC[C@H]1C[C@@H](O)[C@H](n2ccc(=O)[nH]c2=O)O1)[C@H](C)N(C)C(=O)[C@@H](N)CC(=O)O,9.8,–
CC(C)[C@H](NC(=O)N[C@@H](Cc1c[nH]c2ccccc12)C(=O)O)C(=O)N[C@H](C(=O)N/C=C1/C[C@@H](O)[C@H](n2ccc(=O)[nH]c2=O)O1)[C@H](C)N(C)C(=O)[C@@H](N)Cc1cccc(O)c1,–,9.5
CC(C)C[C@H](NC(=O)N[C@@H](Cc1c[nH]c2ccccc12)C(=O)O)C(=O)N[C@H](C(=O)NC[C@H]1C[C@@H](O)[C@H](n2ccc(=O)[nH]c2=O)O1)[C@H](C)N(C)C(=O)[C@@H](N)CCCN,0.95,–
CC(C)C[C@H](NC(=O)N[C@@H](Cc1c[nH]c2ccccc12)C(=O)O)C(=O)N[C@H](C(=O)NC[C@H]1C[C@@H](O)[C@H](n2ccc(=O)[nH]c2=O)O1)[C@H](C)N(C)C(=O)[C@H](C)N,0.6,–
CC(C)C[C@H](NC(=O)N[C@@H](Cc1c[nH]c2ccccc12)C(=O)O)C(=O)N[C@H](C(=O)NC[C@H]1C[C@@H](O)[C@H](n2ccc(=O)[nH]c2=O)O1)[C@H](C)N(C)C(=O)[C@@H](N)Cc1ccccc1,4.05,–
CC(C)C[C@H](NC(=O)N[C@@H](Cc1c[nH]c2ccccc12)C(=O)O)C(=O)N[C@H](C(=O)NC[C@H]1C[C@@H](O)[C@H](n2ccc(=O)[nH]c2=O)O1)[C@H](C)N(C)C(=O)CN,0.63,–

# From ChEMBL document CHEMBL4725382, “Uridine natural products: Challenging targets and inspiration for novel small molecule inhibitors” (Bioorg Med Chem, 2020)
